According to patent publication US20240343717A1, “MICROBIOCIDAL PYRAZOLE DERIVATIVES” (SYNGENTA CROP PROTECTION AG, priority 2021, published 2024):

What was measured:
Alternaria solani = Alternaria solani / tomato / leaf disc (early blight); assay type: in vivo; details: foliar, tomato leaf disks, sprayed 2 days before inoculation, compared to untreated control
Description: Example B1: Alternaria solani/Tomato/Leaf Disc (Early Blight) Tomato leaf disks cv. Baby are placed on agar in multiwell plates (24-well format) and sprayed with the formulated test compound diluted in water. The leaf disks are inoculated with a spore suspension of the fungus 2 days after application. The inoculated leaf disks are incubated at 23° C./21° C.

[1] = test system: Puccinia recondita f. sp. tritici; assay: Puccinia recondita f. sp. tritici / wheat / leaf disc curative (brown rust); assay type: in vivo; details: 200 ppm, wheat leaf segments, applied 1 day after inoculation
Description: Example B11: Puccinia recondita f. Sp. Tritici/Wheat/Leaf Disc Curative (Brown Rust)
Wheat leaf segments cv. Kanzler are placed on agar in multiwell plates (24-well format). The leaf segments are inoculated with a spore suspension of the fungus. Plates are stored in darkness at 19° C. and 75% rh. The formulated test compound diluted in water is applied 1 day after inoculation. The leaf segments are incubated at 19° C. and 75% rh under a light regime of 12 h light/12 h darkness in a climate cabinet and the activity of a compound is assessed as percent disease control compared to untreated when an appropriate level of disease damage appears in untreated check leaf segments (6-8 days after application).

Pyrenophora teres = Pyrenophora teres / barley / leaf disc preventative (net blotch); assay type: in vivo; details: foliar, barley leaf segments, inoculated 2 days after application
Summary of the method: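 Barley cv. Hasso leaf segments on agar sprayed with formulated compound, inoculated with spores 2 days later. Incubated at 20 °C, 65% rh, 12 h light/dark; disease control versus untreated assessed 5–7 days after application.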

[2] = test system: Monographella nivalis (Microdochium nivale); assay: Monographella nivalis (Microdochium nivale) / liquid culture (foot rot cereals); assay type: cell-based; details: growth inhibition photometrically 4-5 days after application, read-out: control of Monographella nivalis
Summary of the method: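 Fungal conidia mixed directly into potato dextrose broth and added to test compound delivered in DMSO. Incubated at 24° C; growth inhibition read photometrically 4-5 days after application.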

[3] = test system: Glomerella lagenarium (Colletotrichum lagenarium); assay: Glomerella lagenarium (Colletotrichum lagenarium) / liquid culture (anthracnose); assay type: cell-based; details: Colletotrichum orbiculare, growth inhibition photometrically 3-4 days after application, read-out: control of Glomerella lagenarium
Summary of the method: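 Cryo-stored conidia in potato dextrose broth were added to test compound in DMSO. Plates were incubated at 24° C, and growth inhibition was read photometrically 3-4 days after application.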

[4] = test system: Mycosphaerella graminicola (Septoria tritici); assay: Mycosphaerella graminicola (Septoria tritici) / liquid culture (Septoria blotch); assay type: cell-based; details: Zymoseptoria tritici, growth inhibition photometrically 4-5 days after application, read-out: control of Mycosphaerella graminicola
Summary of the method: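 Conidia suspended in potato dextrose broth and added to test compound supplied in DMSO in 96-well plates. Incubated at 24 °C, and growth inhibition read photometrically 4-5 days after application.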

[5] = test system: Blumeria graminis f. sp. tritici (Erysiphe graminis f. sp. tritici); assay: Blumeria graminis f. sp. tritici / wheat / leaf disc preventative (powdery mildew on wheat); assay type: in vivo; details: foliar, wheat leaf segments, inoculated 1 day after application
Summary of the method: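 Wheat cv. Kanzler leaf segments on agar sprayed with formulated compound in water, inoculated 1 day later by shaking mildew-infected plants overhead. Incubated at 20° C, 60% rh, 24 h dark then 12 h light/12 h dark. Percent disease control versus untreated scored 6-8 days after application.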

[6] = test system: Botryotinia fuckeliana (Botrytis cinerea); assay: Botryotinia fuckeliana (Botrytis cinerea) / liquid culture (gray mould); assay type: cell-based; details: growth inhibition photometrically 3-4 days after application, read-out: control of Botryotinia fuckeliana
Summary of the method: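 Conidia suspended in Vogels broth and added to compound dispensed from DMSO. Incubated at 24°C, with growth inhibition measured photometrically 3–4 days later.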

Cc1ccc(C(C)(CNC(=O)c2cc(-c3ccc(F)cc3F)on2)c2cnn(C)c2)nc1 (centres unmarked) [Compound P-19, 5-(2,4-difluorophenyl)-N-[2-(1-methylpyrazol-4-yl)-2-(5-methyl-2-pyridyl)propyl] isoxazole-3-carboxamide]
pest or weed control at 200 ppm (Alternaria solani): ≥ 80% | control of Puccinia recondita f. sp. tritici [1]: at least 80% | pest or weed control at 200 ppm (Pyrenophora teres): ≥ 80% | inhibition of growth at 20 ppm [2]: ≥ 80% | inhibition of growth at 20 ppm [3]: ≥ 80% | inhibition of growth at 20 ppm [4]: ≥ 80% | pest or weed control at 200 ppm [5]: ≥ 80% | inhibition of growth at 20 ppm [6]: ≥ 80%
